{"source": "patent US8808713B2", "about": "“Compositions for pulmonary delivery of long-acting β2 adrenergic receptor agonists and associated methods and systems” (Pearl Thereapeutics, Inc., priority 2009, dated 2014)", "key": {"[1]": {"system": "patients with mild to moderate COPD", "assay": "Multi-center clinical trial, single-dose crossover: spirometry (FEV1) and safety", "settings": "18 μg via Spiriva Handihaler"}, "[2]": {"assay": "Visual observation of suspension quality / co-suspension in glass vials (settling, centrifugation)", "format": "physicochemical", "description": "The canisters were crimp sealed with 63 μl valves (# BK 357, Bespak, King's Lynn, UK) and filled with 12.4 g of HFA 134a (1,1,1,2-tetrafluoroethane) (Ineos Fluor, Lyndhurst, UK) by overpressure through the valve stem. After injecting the propellant, the canisters were sonicated for 15 seconds and agitated on a wrist action shaker for 30 minutes. The canisters were fitted with polypropylene actuators with a 0.3 mm orifice (# BK 636, Bespak, King's Lynn, UK). Additional inhalers for visual observation of suspension quality were prepared using glass vials.\nThe canisters were crimp sealed with 63 μl valves (Valois DF30/63 RCU, Les Vaudreuil, France) and filled with 9.5 mL of HFA 134a (Ineos Fluor, Lyndhurst, UK) by overpressure through the valve stem. After injecting the propellant, the canisters were sonicated for 15 seconds and agitated on a wrist action shaker for 30 minutes. Additional inhalers with suspending particles only were manufactured as control for each configuration.\nMetered dose inhalers were prepared by weighing the target masses of micronized active agent particles and suspending particles into coated glass vials with 15 mL volume. […] For each configuration, additional glass bottles were filled with the respective amount of FF active agent particles without any suspending particles. […]"}}}
{"smiles": "C[N+]1(C)[C@@H]2C[C@@H](OC(=O)C(O)(c3cccs3)c3cccs3)C[C@H]1[C@@H]1O[C@@H]12", "note": "[tiotropium]", "values": [{"measurement": "Mean time to ≧10% improvement in FEV1", "setting": "[1]", "result": "approximately 3 hours"}]}
{"smiles": "OCc1cc(C(O)CNCCCCCCOCCCCc2ccccc2)ccc1O", "note": "(stereo not drawn) [SX, 4-hydroxy-α1-[[[6-(4-phenylbutoxy)hexyl]amino]methyl]-1,3-benzenedimethanol, 1-hydroxy-2-naphthalenecarboxylate]", "values": [{"measurement": "Visual observation: sedimentation of SX crystals", "setting": "[2]; glass vials heated up to 30° C.-35° C. in a water bath", "result": "sedimented rapidly"}]}
{"smiles": "COc1ccc(CC(C)NCC(O)c2ccc(O)c(NC=O)c2)cc1.O=C(O)/C=C/C(=O)O", "note": "(racemic) [FF, (±)-2-hydroxy-5-[(1RS)-1-hydroxy-2-[[(1RS)-2-(4-methoxyphenyl)-1-methylethyl]-amino]ethyl]formanilide fumarate]", "values": [{"measurement": "Visual observation: sedimentation of crystalline FF", "setting": "[2]; glass vials, HFA 134a, left to settle 24 h", "result": "sedimented quickly"}]}
